PubChem BioAssay AID248 (DTP/NCI, 2004)
Values joined by “and” are separate entries in the source; they are usually repeats but may differ in a detail not shown here. Equal entries are not always repeated. Inconclusive results and toxic doses are left out. Cut-off read from the data, not from the text of the source: active = T/C of 150% or more; inactive = T/C below 125%.

System: L1210 leukemia ip in BDF1 mice, survival T/C
Experiment: NCI In Vivo Anticancer Drug Screen. Data for tumor model L1210 Leukemia (intraperitoneal) in B6D2F1 (BDF1) mice
Settings: endpoint: mean survival time, higher = longer survival
Method in brief: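 Value reflects the ratio of survival in compound-treated mice to survival in vehicle-treated controls, with both groups carrying the same transplanted tumor.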

[1] = dose: 100.0 mg/kg/injection, schedule: Q01DX009 (ip), vehicle: saline
[2] = dose: 100.0 mg/kg/injection, schedule: Q04DX003 (ip), vehicle: saline
[3] = dose: 200.0 mg/kg/injection, schedule: Q04DX003 (ip), vehicle: saline
[4] = dose: 400.0 mg/kg/injection, schedule: Q04DX003 (ip), vehicle: saline
[5] = dose: 100.0 mg/kg/injection, schedule: Q01DX001 (ip), vehicle: saline
[6] = dose: 200.0 mg/kg/injection, schedule: Q01DX001 (ip), vehicle: saline
[7] = dose: 400.0 mg/kg/injection, schedule: Q01DX001 (ip), vehicle: saline
[8] = dose: 100.0 mg/kg/injection, schedule: Q04DX003 (ip), vehicle: saline with Tween-80
[9] = dose: 200.0 mg/kg/injection, schedule: Q04DX003 (ip), vehicle: saline with Tween-80
[10] = dose: 400.0 mg/kg/injection, schedule: Q04DX003 (ip), vehicle: saline with Tween-80
[11] = dose: 50.0 mg/kg/injection, schedule: Q01DX009 (ip), vehicle: Klucel (hydroxypropylcellulose) (HPC)
[12] = dose: 100.0 mg/kg/injection, schedule: Q04DX003 (ip), vehicle: Klucel (hydroxypropylcellulose) (HPC)
[13] = dose: 200.0 mg/kg/injection, schedule: Q01DX009 (ip), vehicle: Klucel (hydroxypropylcellulose) (HPC)
[14] = dose: 100.0 mg/kg/injection, schedule: Q04DX002 (ip), vehicle: gum acacia
[15] = dose: 200.0 mg/kg/injection, schedule: Q04DX002 (ip), vehicle: gum acacia
[16] = dose: 400.0 mg/kg/injection, schedule: Q04DX002 (ip), vehicle: gum acacia

Measured: T/C

COc1ccccc1C(C#N)N1CCCN(C(C#N)c2ccccc2OC)C1c1cc(Cl)cc(Cl)c1O (stereo not given)
inactive: [1] 103 % of control | [2] 112 % of control | dose: 200.0 mg/kg/injection, schedule: Q01DX009 (ip), vehicle: saline 88 % of control | [3] 97 % of control | dose: 400.0 mg/kg/injection, schedule: Q01DX009 (ip), vehicle: saline 90 % of control | [4] 97 % of control

NC1=C(c2ccccc2)C(=O)C(N)=C(c2ccccc2)C1=O
inactive: dose: 100.0 mg/kg/injection, schedule: Q01DX001 (ip), vehicle: carboxymethylcellulose (CMC) 96 % of control | dose: 200.0 mg/kg/injection, schedule: Q01DX001 (ip), vehicle: carboxymethylcellulose (CMC) 88 % of control | dose: 400.0 mg/kg/injection, schedule: Q01DX001 (ip), vehicle: carboxymethylcellulose (CMC) 88 % of control

Cc1cnc2c(N)nn(C)c2n1
inactive: dose: 50.0 mg/kg/injection, schedule: Q01DX009 (ip), vehicle: saline 102 % of control | [1] 110 % of control | dose: 100.0 mg/kg/injection, schedule: Q04DX003 (ip), vehicle: alcohol 102 % of control | dose: 200.0 mg/kg/injection, schedule: Q04DX003 (ip), vehicle: alcohol 98 % of control

CC(NC(=O)/C=C\C(=O)O)c1ccccc1 (stereo not given)
inactive: [2] 92 % of control | [3] 102 % of control | [4] 103 % of control

O=c1ccn(C2SC(CO)C(O)C2O)c(=O)[nH]1 (stereo not given)
inactive: dose: 50.0 mg/kg/injection, schedule: Q01DX001 (ip), vehicle: saline 108 % of control | [5] 100 % of control | [6] 88 % of control | [7] 108 % of control

O=C(O)c1c[nH]c2cc(Cl)ccc2c1=O
inactive: dose: 100.0 mg/kg/injection, schedule: Q01DX001 (ip), vehicle: Klucel (hydroxypropylcellulose) (HPC) 90 % of control | [8] 100 % of control | dose: 200.0 mg/kg/injection, schedule: Q01DX001 (ip), vehicle: Klucel (hydroxypropylcellulose) (HPC) 101 % of control | [9] 101 % of control and 105 % of control | dose: 400.0 mg/kg/injection, schedule: Q01DX001 (ip), vehicle: Klucel (hydroxypropylcellulose) (HPC) 97 % of control | [10] 100 % of control and 90 % of control

O=S(=O)(O)C(Nc1ccccc1)c1ccccc1 (stereo not given)
inactive: dose: 100.0 mg/kg/injection, schedule: Q01DX009 (ip), vehicle: saline with Tween-80 100 % of control | [8] 97 % of control | dose: 150.0 mg/kg/injection, schedule: Q01DX001 (ip), vehicle: water 96 % of control | dose: 162.0 mg/kg/injection, schedule: Q01DX Z (ip), vehicle: carboxymethylcellulose (CMC) 95 % of control | dose: 200.0 mg/kg/injection, schedule: Q01DX009 (ip), vehicle: saline with Tween-80 96 % of control | [9] 101 % of control | dose: 300.0 mg/kg/injection, schedule: Q01DX001 (ip), vehicle: water 100 % of control | dose: 324.0 mg/kg/injection, schedule: Q01DX Z (ip), vehicle: carboxymethylcellulose (CMC) 94 % of control | dose: 400.0 mg/kg/injection, schedule: Q01DX009 (ip), vehicle: saline with Tween-80 101 % of control | dose: 400.0 mg/kg/injection, schedule: Q01DX015 (ip), vehicle: water 119 % of control | [10] 93 % of control | dose: 600.0 mg/kg/injection, schedule: Q01DX001 (ip), vehicle: water 96 % of control | dose: 600.0 mg/kg/injection, schedule: Q01DX015 (ip), vehicle: water 104 % of control | dose: 1200.0 mg/kg/injection, schedule: Q01DX001 (ip), vehicle: water 116 % of control

Cc1ccc(C)c(NC(=O)Oc2ccc(Br)cc2Br)c1
inactive: dose: 25.0 mg/kg/injection, schedule: Q01DX009 (ip), vehicle: Klucel (hydroxypropylcellulose) (HPC) 92 % of control | [11] 94 % of control | [12] 94 % of control | [13] 93 % of control and 114 % of control | dose: 200.0 mg/kg/injection, schedule: Q04DX003 (ip), vehicle: Klucel (hydroxypropylcellulose) (HPC) 87 % of control | dose: 400.0 mg/kg/injection, schedule: Q04DX003 (ip), vehicle: Klucel (hydroxypropylcellulose) (HPC) 110 % of control

CCCCC(=O)N/N=C/c1ccccc1Cl
inactive: [5] 102 % of control | [6] 104 % of control

c1ccc(CSc2ncnc3nc[nH]c23)nc1
inactive: dose: 50.0 mg/kg/injection, schedule: Q04DX003 (ip), vehicle: saline sonified 116 % of control | dose: 100.0 mg/kg/injection, schedule: Q04DX003 (ip), vehicle: saline sonified 113 % of control

Nc1ncnc2sc3c(c12)CCc1ccccc1-3
inactive: [11] 92 % of control | dose: 100.0 mg/kg/injection, schedule: Q01DX009 (ip), vehicle: Klucel (hydroxypropylcellulose) (HPC) 98 % of control | [13] 95 % of control

CCCCNS(=O)(=O)c1ccc(OC)c(NC(=O)c2ccc(C(=O)Nc3cc(S(=O)(=O)NCCCC)ccc3OC)cc2)c1
inactive: [5] 105 % of control | [6] 94 % of control | [7] 94 % of control

CCOc1ccc([N+](=O)[O-])cc1CNCCCl
inactive: dose: 25.0 mg/kg/injection, schedule: Q04DX003 (ip), vehicle: Klucel (hydroxypropylcellulose) (HPC) 102 % of control | dose: 50.0 mg/kg/injection, schedule: Q04DX003 (ip), vehicle: Klucel (hydroxypropylcellulose) (HPC) 98 % of control | [12] 98 % of control and 104 % of control

O=C(O)CCCCCCCCCCNC(=O)Nc1cccc(C(F)(F)F)c1
inactive: dose: 100.0 mg/kg/injection, schedule: Q01DX001 (ip), vehicle: gum acacia 92 % of control and 96 % of control | dose: 100.0 mg/kg/injection, schedule: Q01DX009 (ip), vehicle: gum acacia 92 % of control | [14] 93 % of control and 88 % of control | dose: 100.0 mg/kg/injection, schedule: Q04DX003 (ip), vehicle: gum acacia 93 % of control and 89 % of control and 90 % of control | dose: 200.0 mg/kg/injection, schedule: Q01DX001 (ip), vehicle: gum acacia 94 % of control and 89 % of control | dose: 200.0 mg/kg/injection, schedule: Q01DX009 (ip), vehicle: gum acacia 93 % of control | [15] 92 % of control and 89 % of control | dose: 200.0 mg/kg/injection, schedule: Q04DX003 (ip), vehicle: gum acacia 93 % of control and 97 % of control and 88 % of control | dose: 400.0 mg/kg/injection, schedule: Q01DX001 (ip), vehicle: gum acacia 92 % of control and 96 % of control | dose: 400.0 mg/kg/injection, schedule: Q01DX009 (ip), vehicle: gum acacia 93 % of control | [16] 86 % of control and 90 % of control | dose: 400.0 mg/kg/injection, schedule: Q04DX003 (ip), vehicle: gum acacia 94 % of control and 88 % of control

CCCCCNC(=S)Nc1ccccc1
inactive: dose: 38.0 mg/kg/injection, schedule: Q04DX003 (ip), vehicle: other 98 % of control | dose: 75.0 mg/kg/injection, schedule: Q01DX001 (ip), vehicle: other 98 % of control | dose: 75.0 mg/kg/injection, schedule: Q04DX003 (ip), vehicle: other 102 % of control | dose: 150.0 mg/kg/injection, schedule: Q01DX001 (ip), vehicle: other 112 % of control | dose: 150.0 mg/kg/injection, schedule: Q04DX003 (ip), vehicle: other 96 % of control | dose: 300.0 mg/kg/injection, schedule: Q01DX001 (ip), vehicle: other 110 % of control

CC(C)C(=O)/C=C/c1ccc(Cl)cc1
inactive: [14] 95 % of control | [15] 92 % of control | [16] 92 % of control
